Data from US9796676B2, “Honeybee repellents and uses thereof” (Inscent, Inc., priority 2013, dated 2017).

Experiments:
[1] = test system: Apis mellifera Carniolan foraging worker honeybees; test: Choice test in a free-flight box apparatus; format: in vivo; conditions: for P (probability that a honeybee will return to a test dish, nP divided by n): control likelihood without compound 47.5%; for nP (number of tests a honeybee returned to a preferred test dish): free-flight box, 2 μL of 0.05-0.5% compound on filter papers under honey dish
Description: To determine whether living honeybees will choice to move towards a source of a candidate compound, these compounds will be assayed using a choice test in a free-flight box apparatus.
All tests will be done in a free-flight box apparatus. The apparatus comprises a 244 cm long×46 cm deep×30 cm high clear plastic box including two equally-sized independent testing chambers, each with 10 cm diameter air inlets that admit filtered room air, separated by a smaller central chamber with a screened air outlet to each testing chamber. Air can be pulled through the sealed box via a 10 cm diameter duct from the air outlet using an AQE Fume Fighter 500 fume extractor (BPA Air Quality Solutions, LLC, Charleston, S.C.), which removes the test odors using activated charcoal and HEPA filters. The box is housed in an environmentally controlled room with overhead illumination timed to correspond to the current ambient light cycle including 2 additional sets of lights timed to approximate crepuscular lighting conditions. The bottom of the apparatus will be lined with clean absorbent paper marked with a 4×9 grid pattern, forming 12 cm×12 cm squares with marked coordinates.
Apis mellifera Carniolan foraging worker honeybees will be obtained from a local apiary (typically 60 bees per shipment). Thirty honeybees will be put into each testing chamber and will be allowed to acclimate for 24 hours with food and water freely available. At the beginning of each test day all food will be removed from the test chamber, but water will be continually available throughout all tests. For each test, approximately 0.3 g of organic, raw orange blossom honey will be added to each clean small plastic weigh boat (Cole-Palmer). The honey boats will be placed in small plastic culture dishes, which will be distributed in the marked squares in the chambers. The positions of the dishes on the grid for a set of trials will be chosen to avoid the bees' preferred resting area so that they will have to find the food actively, but the same dish positions will be maintained for a given set of trials. We will use seven dishes of honey: six to which the bees will have access and a seventh that will have a screened lid. The honey in each boat will be weighed on an analytical balance before and after the test, with the screened sample as a control for evaporative loss. The fume extractor will be left off during the experimental trails, and will be turned on to clear the air after the test dishes are covered and removed from the chamber at the end of each trial.
Based on the observation that bees tend to return to dishes in the same position where they have fed before, each set of trials with each group of bees began with “Pattern Identification” tests to see which dishes lose the most weight, reflecting the most feeding. Once bees are consuming an acceptable amount in 10-15 min, typically in 1-2 trials, a set of test compound trials will begin. The test compound will be pipetted onto pieces of filter paper placed on the dish bottom below the boat containing a fresh, weighed honey sample so that the test compound will be inaccessible to the bees. We used 2 μL of a candidate compound at a concentration of 0.05-0.5%, in Triton X-100 or paraffin oil, on each of four pieces of filter paper per dish. The test-solution dishes will be set at the same positions as the one or two dishes favored in the preceding Pattern Identification trial. To eliminate interference from the solvent, the other dishes without the test substance will contain the same volume of the appropriate solvent on filter papers as the test solution dishes. The bees will be allowed to feed for 10-15 minutes. Bee movements will be recorded by a small, wide-angle digital video camcorder (HD Hero 960; GoPro, Halfmoon Bay, Calif.) placed on a tripod in front of the test chamber. […]

[2] = cited from earlier work
[3] = test system: OBP2; test: Fluorescent-quench ligand-protein-binding assay (OBP2 binding); design: species or system Apis mellifera
[4] = test system: Apis mellifera Carniolan foraging worker honeybees; test: Proboscis extension response (PER) assay with bees conditioned to 2-heptanone; format: in vivo; conditions: 0.5% compound in Triton X-100/water on filter paper, 4 s exposure; only bees giving PER with 2-heptanone and not with water or 15% Triton X-100 controls counted

Row | Compound | Z-score ([1]; Z-test vs control likelihood 47.5%, alpha=10%, critical Z-score 1.282, positive = attractant, negative = repellant) | P (probability that a honeybee will return to a test dish, nP divided by n) [1] | nP (number of tests a honeybee returned to a preferred test dish) [1] | Solubility in water [2] | OBP2 binding characteristic of compound [3] | 2-heptanone positive bees testing positive to compound [4] [%]
1 | CCCCCC(C)=O [2-heptone, 2-Heptanone, reference compound] | −2.256 | 0.425 | 217 | very slightly soluble |  | 
2 | CCc1ccc(O)c(N=Cc2cc(I)cc(I)c2O)c1 [compound 89, 2-{[(5-ethyl-2-hydroxyphenyl)imino]methyl}-4,6-diiodophenol] |  | 0.278 | 5 |  | Moderate (Moderate, indicates that 50% or less of the compound bound to OBP2.) | 33.3
